Laboratory results published in US11299458B2, “Crystalline compounds” (OTSUKA AMERICA PHARMACEUTICAL, INC., priority 2015, dated 2022).
Several values for one entry are separate records, joined by “and”; a condition that tells them apart may be missing. Equal values may be shown once.

Experiments:
[1] = Physical stability of mixture of Forms A and B on heat exposure; type: physicochemical; conditions: exposure to 230° C.
Description: Tt,B→A is between 37 and 54° C. […] (Table 19 below).

[2] = target: norepinephrine reuptake (NE) (Homo sapiens, UniProt P23975); conditions: unbalanced triple reuptake inhibitor; cited from earlier work
[3] = target: dopamine reuptake (DA) (Homo sapiens, UniProt Q01959); conditions: unbalanced triple reuptake inhibitor; cited from earlier work
[4] = target: serotonin reuptake (5-HT) (Homo sapiens, UniProt P31645); conditions: unbalanced triple reuptake inhibitor; cited from earlier work
[5] = Solution calorimetry (SolCal), heats of solution in methanol; type: physicochemical; conditions: 25° C.
Description: For each test, two heats of solution are obtained—one calculated using a calibration preceding the sample analysis and one calculated using a calibration following the sample analysis. Clear solutions are observed after each test.
Solution calorimetry is performed using a Thermometric 2225 Precision Solution calorimeter, a semi-adiabatic calorimeter. Solution calorimeter System v.1.2 software is used. Samples are weighed into glass crushing ampoules and are sealed using silicone rubber plugs and hot wax. Experiments are carried out in 100 mL of methanol at 25° C. The measurement of the heats of solution of the samples is both preceded and followed by calibrations using an internal heater. The heats of solution are calculated using dynamic of calibration model.

[6] = Accelerated stress conditions (relative humidity stress), solid form by XRPD; type: physicochemical; conditions: two weeks
Description: Relative Humidity Stress: Solids are stored at approximately 40° C./75% RH condition for a measured time period by placing the solids into a vial inside a sealed temperature/humidity chamber at the controlled condition. Samples are analyzed after removal from the stress environment.
Crystalline Forms A, B, and C are exposed to accelerated stress conditions for two weeks (Table 18 below). […] Crystalline Form C is metastable at this condition.
Experimental: Relative Humidity Stress
The following relative humidity jars (saturated salt solutions are used to generate desired relative humidity) are utilized: 75% RH (NaCl) and 56% RH (NaBr) (Nyqvist, H., Int. J. Pharm. Tech. &Prod. Mfr. 1983, 4 (2), 47-48).

[7] = Approximate solubility by solvent aliquot addition; type: physicochemical; conditions: in both methanol and water, room temperature
Description: Solution calorimetry (SolCal) analyses are also performed to determine the heats of solution in methanol at 25° C. and confirm the stable form at this temperature (see Example 15).
Experimental: Approximate Solubility
A weighed sample is treated with aliquots of the test solvent at room temperature. The mixture is sonicated between additions to facilitate dissolution. Complete dissolution of the test material is determined by visual inspection. Solubility is estimated based on the total solvent used to provide complete dissolution. The actual solubility may be greater than the value calculated because of the use of solvent aliquots that are too large or due to a slow rate of dissolution.

[8] = Binary interconversion (competitive) slurry experiments between Crystalline Forms A, B and C; type: physicochemical; conditions: from interconversion slurries
Description: Interconversion experiments are performed to test the hypothetical thermodynamic relationship between materials illustrated by the Energy—Temperature Diagram above. […] The choice of solvent affects the kinetics of polymorph conversion and not the thermodynamic relationship between polymorphic forms (Gu, C. H., Young, V. Jr., Grant, D. J., J. Pharm. Sci. 2001, 90 (11), 1878-1890).
Binary interconversion slurry experiments between Crystalline Forms A, B, and C in different solvent systems at temperatures spanning approximately 2 through 67° C. are summarized in Table 16 below. Saturated solutions are generated and then added to mixtures composed of approximately equivalent quantities of two of the polymorphs. The samples are slurried from overnight to three weeks and the solids harvested and analyzed by XRPD. The results of the interconversion studies indicate that the relative thermodynamic stability of the enantiotropes Crystalline Forms A, B, and C are correctly depicted by the proposed Energy—Temperature Diagram. In addition, Tt,C→B is expected below 2° C.

[9] = Storage stability of solid form, XRPD after storage; type: physicochemical; conditions: 22 days of ambient storage
Description: Six scale-up attempts are conducted to prepare Crystalline Form C by cooling in isopropanol on approximately 50-150 mg scale (Table 11) and the solids tested by XRPD. At refrigerator temperature, precipitated solids yield Form B. Seeding with Form C after cooling in the refrigerator (no solids observed) and before placing in the freezer yield XRPD pattern of Form C with B peaks. Precipitation at freezer temperature results in solids with an XRPD pattern of Form C with A peaks. A solution placed in the freezer after cooling to room temperature with a lower concentration (7 mg/mL compared to 10 mg/mL) yields Form B. By crash cooling (ambient solution placed into dry ice/isopropanol), solids generated are a mixture of Forms B and A. The last attempt on an approximate 50-mg scale generates a mixture of Forms A and C.
An elliptically graded multilayer mirror is used to focus Cu Kα X-rays through the specimen and onto the detector. Prior to the analysis, a silicon specimen (NIST SRM 640e) is analyzed to verify the observed position of the Si 111 peak is consistent with the NIST-certified position. A specimen of the sample is sandwiched between 3-μm-thick films and analyzed in transmission geometry. A beam-stop, short antiscatter extension, and antiscatter knife edge are used to minimize the background generated by air. Soller slits for the incident and diffracted beams are used to minimize broadening from axial divergence. The diffraction pattern is collected using a scanning position-sensitive detector (X'Celerator) located 240 mm from the specimen and Data Collector software v. 2.2b. Data acquisition parameters are: Panalytical X-Pert Pro MPD PW3040 Pro, X-ray Tube: Cu (1.54059 Å), Voltage: 45 kV, Amperage: 40 mA, Scan Range: 1.00-39.99° 2θ, Step Size: 0.017° 2θ, Collection Time: 719 s, Scan Speed: 3.3°/min., Slit: DS: ½°, SS: null, Revolution Time: 1.0 s, Mode: Transmission.

Chain of serotonin reuptake (5-HT) (P31645 whole entry): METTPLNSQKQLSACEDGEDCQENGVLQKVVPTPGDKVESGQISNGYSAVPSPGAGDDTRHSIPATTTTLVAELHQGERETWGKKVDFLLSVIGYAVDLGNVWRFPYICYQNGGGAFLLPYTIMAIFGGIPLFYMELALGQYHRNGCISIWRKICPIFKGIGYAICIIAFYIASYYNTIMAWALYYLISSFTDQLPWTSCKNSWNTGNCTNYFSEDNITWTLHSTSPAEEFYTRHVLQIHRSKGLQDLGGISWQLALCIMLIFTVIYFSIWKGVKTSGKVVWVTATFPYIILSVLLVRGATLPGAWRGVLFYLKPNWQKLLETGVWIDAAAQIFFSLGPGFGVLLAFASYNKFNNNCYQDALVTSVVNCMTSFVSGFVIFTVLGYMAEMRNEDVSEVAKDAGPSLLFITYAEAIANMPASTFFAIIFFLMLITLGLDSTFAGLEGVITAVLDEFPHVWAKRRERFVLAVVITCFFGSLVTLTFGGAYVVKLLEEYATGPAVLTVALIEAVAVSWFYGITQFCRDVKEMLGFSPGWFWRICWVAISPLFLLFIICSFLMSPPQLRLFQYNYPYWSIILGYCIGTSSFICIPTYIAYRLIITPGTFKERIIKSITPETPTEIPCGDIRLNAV
Chain of norepinephrine reuptake (NE) (P23975 whole entry): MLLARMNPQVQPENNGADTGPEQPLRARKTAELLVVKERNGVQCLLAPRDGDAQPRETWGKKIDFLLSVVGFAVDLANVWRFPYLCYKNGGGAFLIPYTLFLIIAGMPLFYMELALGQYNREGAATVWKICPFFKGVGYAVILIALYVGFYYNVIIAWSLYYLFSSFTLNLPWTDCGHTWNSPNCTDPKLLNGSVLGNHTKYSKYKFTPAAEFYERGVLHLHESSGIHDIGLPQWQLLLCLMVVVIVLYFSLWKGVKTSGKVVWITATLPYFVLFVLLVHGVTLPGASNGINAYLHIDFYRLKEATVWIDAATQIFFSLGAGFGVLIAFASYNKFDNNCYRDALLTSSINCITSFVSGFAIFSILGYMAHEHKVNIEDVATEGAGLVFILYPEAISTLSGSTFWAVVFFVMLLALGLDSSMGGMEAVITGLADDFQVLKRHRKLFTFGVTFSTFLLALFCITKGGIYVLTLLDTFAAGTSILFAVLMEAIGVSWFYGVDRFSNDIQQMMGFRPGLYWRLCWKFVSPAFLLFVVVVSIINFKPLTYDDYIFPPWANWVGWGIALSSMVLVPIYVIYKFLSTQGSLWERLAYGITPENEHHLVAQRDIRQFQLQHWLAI
Chain of dopamine reuptake (DA) (Q01959 whole entry): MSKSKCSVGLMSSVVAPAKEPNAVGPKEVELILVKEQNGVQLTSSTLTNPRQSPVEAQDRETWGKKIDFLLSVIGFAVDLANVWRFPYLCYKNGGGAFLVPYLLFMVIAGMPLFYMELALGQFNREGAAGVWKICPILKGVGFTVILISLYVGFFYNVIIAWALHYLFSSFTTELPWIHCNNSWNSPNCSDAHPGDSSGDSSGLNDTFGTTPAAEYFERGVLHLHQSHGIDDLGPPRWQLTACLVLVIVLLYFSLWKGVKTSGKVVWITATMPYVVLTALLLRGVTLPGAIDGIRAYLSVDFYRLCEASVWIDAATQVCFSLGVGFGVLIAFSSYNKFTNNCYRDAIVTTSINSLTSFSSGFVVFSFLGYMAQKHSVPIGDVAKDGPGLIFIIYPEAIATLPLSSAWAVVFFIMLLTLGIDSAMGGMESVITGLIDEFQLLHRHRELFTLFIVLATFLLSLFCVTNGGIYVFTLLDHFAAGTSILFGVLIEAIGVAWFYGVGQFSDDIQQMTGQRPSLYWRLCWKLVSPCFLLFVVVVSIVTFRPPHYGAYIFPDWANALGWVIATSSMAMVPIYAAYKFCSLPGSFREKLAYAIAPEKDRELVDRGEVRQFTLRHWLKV

Cl.c1ccc2cc([C@]34CNC[C@H]3C4)ccc2c1 [mixture of Forms A and B, (1R,5S)-1-(naphthalen-2-yl)-3-azabicyclo[3.1.0]hexane hydrochloride]
solid form after heat exposure [1]: completely converts to Form A

c1ccc2cc([C@]34CNC[C@H]3C4)ccc2c1 [(1R,5S)-1-(naphthalen-2-yl)-3-azabicyclo[3.1.0]hexane]
potency towards norepinephrine reuptake (NE) among the three reuptakes [2]: most potent
potency towards dopamine reuptake (DA) relative to norepinephrine reuptake [3]: one-sixth as potent
potency towards serotonin reuptake (5-HT) relative to norepinephrine reuptake [4]: one-fourteenth as much

Cl.c1ccc2cc([C@]34CNC[C@H]3C4)ccc2c1 [Crystalline Form B, (1R,5S)-1-(naphthalen-2-yl)-3-azabicyclo[3.1.0]hexane hydrochloride]
relative thermodynamic stability versus Crystalline Form A from heats of solution [5]: more stable
enthalpy of the transition from Form B to Form A calculated from the SolCal data ([5]; methanol): about 15.9 J/g
average heat of solution ([5]; methanol, triplicate, endothermic, hydrochloride): 64.567 J/g
average heat of solution ([5]; methanol, average of three replicates, hydrochloride): 64.567 J/g
ΔH2 (heat of solution) ([5]; methanol, calculated using the calibration after breaking the sample vial, single replicates, hydrochloride): 64.985 J/g and 65.057 J/g and 65.421 J/g
ΔH1 (heat of solution) ([5]; methanol, calculated using the calibration before breaking the sample vial, single replicates, hydrochloride): 64.004 J/g and 63.471 J/g and 64.461 J/g
ΔHmean (heat of solution) ([5]; methanol, mean of the two calibrations, single replicates, hydrochloride): 64.495 J/g and 64.264 J/g and 64.941 J/g
solid form by XRPD after accelerated stress ([6]; 30° C./56% RH): remain unchanged
solid form by XRPD after accelerated stress ([6]; 40° C./75% RH, hydrochloride): remain unchanged
apparent solubility compared with Crystalline Form A [7]: lower apparent solubility

Cl.c1ccc2cc([C@]34CNC[C@H]3C4)ccc2c1 [Crystalline Form C, (1R,5S)-1-(naphthalen-2-yl)-3-azabicyclo[3.1.0]hexane hydrochloride]
solid form by XRPD after accelerated stress ([6]; 40° C./75% RH, hydrochloride): converts to a mixture of Crystalline Forms A and B
transition temperature Tt,C→A [8]: between 2 °C and ambient temperature
solid form by XRPD after ambient storage [9]: remains unchanged
